Calls of active or inactive are those of the source.
Legend:
Coagulation factor XII = molecular target: T1, Coagulation factor XII (Homo sapiens, UniProt P00748); type: functional;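 note: activated factor XIIa alpha cleaving a fluorogenic AMC peptide substrate; inhibitor potency from loss of enzyme activity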
T1 sequence (P00748 whole entry): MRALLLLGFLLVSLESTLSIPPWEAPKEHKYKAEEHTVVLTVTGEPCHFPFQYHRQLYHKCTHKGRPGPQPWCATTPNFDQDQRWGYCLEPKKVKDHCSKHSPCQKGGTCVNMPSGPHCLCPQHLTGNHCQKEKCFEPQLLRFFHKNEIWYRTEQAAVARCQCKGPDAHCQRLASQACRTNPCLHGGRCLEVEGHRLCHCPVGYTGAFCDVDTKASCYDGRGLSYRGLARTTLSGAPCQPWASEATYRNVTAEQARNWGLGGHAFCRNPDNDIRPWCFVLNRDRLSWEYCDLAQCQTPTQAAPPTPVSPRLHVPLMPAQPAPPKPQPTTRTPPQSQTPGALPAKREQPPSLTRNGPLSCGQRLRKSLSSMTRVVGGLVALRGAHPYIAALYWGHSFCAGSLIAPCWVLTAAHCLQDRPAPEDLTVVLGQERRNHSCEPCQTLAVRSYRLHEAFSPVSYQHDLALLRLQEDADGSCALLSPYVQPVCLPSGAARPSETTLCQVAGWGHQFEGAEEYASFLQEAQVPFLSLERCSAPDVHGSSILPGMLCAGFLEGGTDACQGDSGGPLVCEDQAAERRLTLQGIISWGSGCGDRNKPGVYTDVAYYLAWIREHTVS

HeLa = assay: ATP-based viability loss in HeLa cells – cell-based, CellTiter-Glo luminescence, cherry-pick samples, cytotoxicity control for MITF activator project, dose response (AID 540259); type: functional; conditions: Homo sapiens
Cytochrome P450 3A4 [1] = molecular target: T2, Cytochrome P450 3A4 (Homo sapiens, UniProt P08684);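 note: CYP3A4 tested as one member of a cytochrome P450 panel screen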
T2 sequence (P08684 whole entry): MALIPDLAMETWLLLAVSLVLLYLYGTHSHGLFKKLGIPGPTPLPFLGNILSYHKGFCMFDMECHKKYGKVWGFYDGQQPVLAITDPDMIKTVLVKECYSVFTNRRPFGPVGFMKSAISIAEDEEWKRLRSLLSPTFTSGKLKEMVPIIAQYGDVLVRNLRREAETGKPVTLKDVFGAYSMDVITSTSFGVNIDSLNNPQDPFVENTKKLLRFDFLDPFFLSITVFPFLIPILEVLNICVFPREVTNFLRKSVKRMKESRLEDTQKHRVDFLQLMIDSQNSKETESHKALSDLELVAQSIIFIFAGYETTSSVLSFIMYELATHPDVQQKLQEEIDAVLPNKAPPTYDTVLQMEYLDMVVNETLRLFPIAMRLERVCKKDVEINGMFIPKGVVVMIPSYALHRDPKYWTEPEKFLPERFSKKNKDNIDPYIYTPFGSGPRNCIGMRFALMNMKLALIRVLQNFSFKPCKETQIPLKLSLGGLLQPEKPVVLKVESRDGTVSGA

Cytochrome P450 3A4 [2] = molecular target: T2, Cytochrome P450 3A4; remark: listed apart in the source
[3] = molecular target: T3, Long-chain-fatty-acid--AMP ligase FadD28 (Mycobacterium tuberculosis, UniProt P9WQ59); assay: Fluorescence polarization aasay to screen for inhibitors that compete for the binding of FadD28 to a bisubstrate Measured in Biochemical System Using Plate Reader - 2147-01_Inhibitor_Dose_CherryPick_Activity.; type: functional, Mycobacterium tuberculosis H37Rv
T3 sequence (P9WQ59 whole entry): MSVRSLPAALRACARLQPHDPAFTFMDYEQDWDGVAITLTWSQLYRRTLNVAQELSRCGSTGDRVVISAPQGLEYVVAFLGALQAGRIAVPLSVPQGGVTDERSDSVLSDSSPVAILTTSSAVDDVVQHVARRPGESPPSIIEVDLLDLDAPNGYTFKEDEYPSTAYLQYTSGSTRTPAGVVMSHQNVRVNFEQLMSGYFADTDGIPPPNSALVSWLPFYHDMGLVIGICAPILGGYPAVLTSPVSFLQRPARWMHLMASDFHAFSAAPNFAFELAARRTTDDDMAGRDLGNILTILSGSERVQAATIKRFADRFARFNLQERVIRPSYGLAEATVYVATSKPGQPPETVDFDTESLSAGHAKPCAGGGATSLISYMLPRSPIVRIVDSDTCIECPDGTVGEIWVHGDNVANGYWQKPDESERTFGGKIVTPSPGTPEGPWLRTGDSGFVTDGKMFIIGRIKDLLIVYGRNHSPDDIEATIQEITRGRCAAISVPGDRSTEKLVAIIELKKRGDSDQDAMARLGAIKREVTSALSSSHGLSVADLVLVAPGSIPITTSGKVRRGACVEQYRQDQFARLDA

[4] = DRD fibroblast viability loss – cell-based, non-viral oncogenic, luminescence, dose response (AID 1934); type: functional; conditions: Homo sapiens
[5] = alpha-synuclein stem-loop luciferase translation blockers – H4 neuroglioma cells, luminescence, confirmation (AID 1988); type: functional, cell-based
BJ [6] = assay: cells; type: functional, cell-based; conditions: Homo sapiens
BJ [7] = assay: BJ-TERT fibroblast viability loss – cell-based, RAS-independent, luminescence, dose response (AID 1933); type: functional; conditions: Homo sapiens
BJ [8] = assay: growth inhibition of engineered Ras-driven BJ cells – cell-based, alamar blue fluorescence, cherrypicked samples, dose response (AID 2631); type: functional; conditions: Homo sapiens;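 note: confirmatory dose-response assay in RAS-dependent BJ fibroblasts engineered with TERT, LT and ST, with cytotoxicity read by fluorescence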
[9] = Luminescence Cell-Based Dose Response HTS to Identify Inhibitors of 5'UTR Stem-Loop Driven Prion Protein mRNA Translation in H4 Neuroglioblastoma Cells. [Related pubchem assays: 1827 (Project Summary), 1813 (Primary HTS)]; type: functional
[10] = luciferase reporter signal suppression in cells – H4 neuroglioma cells, luminescence, dose response (AID 1990); type: functional, cell-based
BJ [11] = assay: BJ-TERT-LT-ST fibroblast viability loss – cell-based, RAS-independent, luminescence, dose response (AID 1935); type: functional; conditions: Homo sapiens;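 note: BJ fibroblasts immortalized with TERT plus LT and ST oncogenes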
[12] = molecular target: T4, Endoribonuclease toxin MazF (Escherichia coli K-12, UniProt P0AE70); assay: activation of MazEF endoribonuclease cleavage – biochemical, fluorescence, single-stranded RNA substrate, uHTS hits, dose response (AID 588481); type: functional
T4 sequence (P0AE70 whole entry): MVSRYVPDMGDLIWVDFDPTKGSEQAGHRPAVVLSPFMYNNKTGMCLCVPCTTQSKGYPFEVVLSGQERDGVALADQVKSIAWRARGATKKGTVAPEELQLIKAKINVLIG

[13] = molecular target: T4, Endoribonuclease toxin MazF; assay: substrate-only fluorescence increase artefacts – biochemical, single-stranded RNase substrate, counter-screen for MazEF activator project, dose response (AID 588502); type: functional
[14] = molecular target: Heat shock protein HSP 90-alpha (Homo sapiens, UniProt P07900); type: functional, organism-based
[15] = molecular target: Ras and Rab interactor 1/Tyrosine-protein kinase ABL1 (Homo sapiens, UniProt P00519+Q13671); type: functional;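 note: biochemical TR-FRET dose-response test measuring inhibition of binding between Rin1 and Abl proteins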
Sequence of Ras and Rab interactor 1/Tyrosine-protein kinase ABL1 (P00519 whole entry): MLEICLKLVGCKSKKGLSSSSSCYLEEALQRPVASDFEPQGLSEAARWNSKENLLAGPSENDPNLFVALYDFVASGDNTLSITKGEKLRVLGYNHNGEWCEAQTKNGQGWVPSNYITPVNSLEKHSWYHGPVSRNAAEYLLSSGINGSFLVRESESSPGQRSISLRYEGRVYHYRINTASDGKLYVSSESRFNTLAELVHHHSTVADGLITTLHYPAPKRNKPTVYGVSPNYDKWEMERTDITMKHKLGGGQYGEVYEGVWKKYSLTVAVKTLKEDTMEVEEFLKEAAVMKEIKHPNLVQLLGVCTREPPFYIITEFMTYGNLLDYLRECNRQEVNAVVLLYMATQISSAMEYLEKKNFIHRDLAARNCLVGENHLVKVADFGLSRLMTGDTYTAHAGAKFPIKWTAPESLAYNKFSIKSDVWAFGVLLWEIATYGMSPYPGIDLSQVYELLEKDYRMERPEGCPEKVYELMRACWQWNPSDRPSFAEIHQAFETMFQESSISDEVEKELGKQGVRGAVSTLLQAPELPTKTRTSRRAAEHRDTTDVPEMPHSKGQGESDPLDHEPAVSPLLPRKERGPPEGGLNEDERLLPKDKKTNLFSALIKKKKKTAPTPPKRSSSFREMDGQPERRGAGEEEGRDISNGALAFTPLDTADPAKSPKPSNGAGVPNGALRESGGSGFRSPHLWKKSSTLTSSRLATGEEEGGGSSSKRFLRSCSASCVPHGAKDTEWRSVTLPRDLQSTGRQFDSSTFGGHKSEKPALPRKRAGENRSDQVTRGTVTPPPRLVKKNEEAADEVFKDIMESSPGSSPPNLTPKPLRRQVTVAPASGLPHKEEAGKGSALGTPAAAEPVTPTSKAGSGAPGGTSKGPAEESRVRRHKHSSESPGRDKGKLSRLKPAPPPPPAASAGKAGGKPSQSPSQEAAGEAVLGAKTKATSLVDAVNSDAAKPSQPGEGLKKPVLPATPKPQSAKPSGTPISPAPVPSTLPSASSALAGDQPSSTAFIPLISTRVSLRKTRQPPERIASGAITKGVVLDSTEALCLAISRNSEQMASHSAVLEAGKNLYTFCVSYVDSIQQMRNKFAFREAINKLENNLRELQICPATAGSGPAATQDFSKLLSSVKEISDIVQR
Sequence of Ras and Rab interactor 1/Tyrosine-protein kinase ABL1 (Q13671 whole entry): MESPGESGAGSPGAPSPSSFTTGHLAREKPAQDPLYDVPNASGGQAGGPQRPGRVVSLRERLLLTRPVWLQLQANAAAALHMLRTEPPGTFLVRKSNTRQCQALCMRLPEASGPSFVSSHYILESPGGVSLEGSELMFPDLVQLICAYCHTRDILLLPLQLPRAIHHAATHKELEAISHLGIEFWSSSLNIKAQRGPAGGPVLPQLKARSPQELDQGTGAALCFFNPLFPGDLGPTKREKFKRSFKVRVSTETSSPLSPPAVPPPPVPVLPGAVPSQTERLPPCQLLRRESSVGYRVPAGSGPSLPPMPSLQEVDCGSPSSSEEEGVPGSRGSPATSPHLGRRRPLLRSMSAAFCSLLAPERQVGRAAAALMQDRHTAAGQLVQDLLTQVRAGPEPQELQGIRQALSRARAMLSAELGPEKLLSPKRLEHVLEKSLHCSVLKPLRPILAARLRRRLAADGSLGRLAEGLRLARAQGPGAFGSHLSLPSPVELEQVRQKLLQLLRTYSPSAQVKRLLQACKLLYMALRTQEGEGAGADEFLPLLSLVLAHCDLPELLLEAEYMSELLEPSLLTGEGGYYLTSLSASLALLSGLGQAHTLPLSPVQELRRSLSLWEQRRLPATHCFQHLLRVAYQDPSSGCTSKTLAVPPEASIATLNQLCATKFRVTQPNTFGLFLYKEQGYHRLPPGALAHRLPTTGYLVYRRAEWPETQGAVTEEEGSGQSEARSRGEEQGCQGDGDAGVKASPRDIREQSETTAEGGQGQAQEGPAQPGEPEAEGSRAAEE

[16] = NIH-3T3 fibroblast cytotoxicity, dose response, cytotoxicity control, cell-based, fluorescence, Alamar Blue, secondary assay (AID 2327); type: functional;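 note: NIH-3T3 mouse fibroblasts cultured with fluconazole at 8 µg/mL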
[17] = fluconazole-exposed Candida albicans growth modulators – fluorescence, retest, confirmation (AID 2467); type: functional, cell-based
[18] = Luminescence Cell-Based Dose Response HTS to Identify Activators of Luciferase Translation or Activity in H4 […] Cells. [Related pubchem assays: 1829 (Project Summary), 1814 (Primary HTS)]; type: functional
H4 = assay: Luminescence Cell-Based Dose Response HTS to Identify Activators of 5'UTR Stem-Loop Driven Prion Protein mRNA Translation in H4 Neuroglioblastoma Cells. [Related pubchem assays: 1829 (Project Summary), 1814 (Primary HTS)]; type: functional; conditions: Homo sapiens

Structure (SMILES): Cc1onc(-c2c(F)cccc2Cl)c1-c1nnc(-c2ccc(C(F)(F)F)cc2)o1
- IC50 (Coagulation factor XII): > 50 µM (inactive)

Structure (SMILES): CC1CCCC(C)N1C(=O)c1cc(-c2ccc3c(c2)OCO3)on1 (stereo not drawn)
- AC50 (HeLa): > 350 µM (inactive)

Structure (SMILES): Nc1ccccc1C#Cc1ccccc1
- AC50 (HeLa): > 350 µM (inactive)
- AC50 (Cytochrome P450 3A4 [1]): 15.8 µM (inconclusive)
- AC50 (Cytochrome P450 3A4 [2]): 15.8 µM (inconclusive)

Structure (SMILES): COc1ccc(C2CC(=O)Oc3c(C(C)C)ccc(C)c32)cc1 (stereo not drawn)
- AC50 [3]: > 100 µM (inactive)

Structure (SMILES): COc1ccc(S(=O)(=O)N2CCOCC2)cc1NC(=O)CCNC(=O)c1ccc(Br)cc1
- EC50 [4]: > 150 µM (not active)
- EC50 [5]: 1.09 µM (active)
- EC50 (BJ [6]): 2.84 µM (inconclusive)
- EC50 (BJ [7]): > 150 µM (not active)
- EC50 (BJ [8]): 6.09 µM (active)
- EC50 [9]: 5.78 µM (active)
- EC50 [10]: 10.6 µM (active)
- EC50 (BJ [11]): 2.02 µM (active)

Structure (SMILES): N#C/C(=C\c1ccc([N+](=O)[O-])cc1)c1nc(C2CC2)cs1
- EC50 [12]: 10.4 µM (active)
- EC50 [13]: > 99 µM (inactive)

Structure (SMILES): COc1ccc2c(c1)OC[C@H]1[C@H]2N2C(=O)c3cc(Cl)ccc3NC(=O)[C@@]2(C)[C@H]1c1ccccc1
- AC50 [14]: 976 nM (active)

Structure (SMILES): O=C(Cc1ccc(NC(=O)C2CCN(C(=O)C3CCCC3)CC2)cc1)Nc1ccc(C(=O)N2CCOCC2)cc1
- IC50 [15]: 1.54 µM (active)

Structure (SMILES): O=C(N/N=C/c1ccc(O)c([N+](=O)[O-])c1)C1CC1(c1ccccc1)c1ccccc1 (stereo not drawn)
- EC50 [16]: > 160 µM (inactive)
- EC50 [17]: 1.04 µM (active)
- AC50 [3]: 22.2 µM (active)

Structure (SMILES): COc1ccc(C(=O)N/N=C\c2coc3ccc(C)cc3c2=O)cc1
- EC50 [12]: > 99 µM (inactive)
- EC50 [13]: > 99 µM (inactive)

Structure (SMILES): CSc1nccc(N/N=C/c2ccccc2)n1
- AC50 (HeLa): 100 µM (active)
- EC50 [18]: 320 nM (active)
- EC50 (H4): 2.55 µM (active)

Structure (SMILES): CCOC(=O)c1c(/N=C/C2C(=O)NC(=O)NC2=O)sc2c1CCC2
- EC50 [12]: > 99 µM (inactive)
- EC50 [13]: > 99 µM (inactive)

— ChEMBL document CHEMBL1201862, “PubChem BioAssay data set” (2004)
